Laboratory results: patent US20100310665A1, “BACTERIOSTATIC OR BACTERIOCIDAL COMPOSITIONS AND METHODS” (Revalesio Corporation, priority 2007, published 2010)

System: Methicillin-Resistant Staphylococcus Aureus (MRSA)
Assay: MRSA bacteriocidal effects, plates with no growth
Assay type: cell-based
Set-up: concentration or dose not given beside the values
Details: fluids in combination with oxacillin

Structure (SMILES): Cc1onc(-c2ccccc2)c1C(=O)N[C@@H]1C(=O)N2[C@@H]1SC(C)(C)[C@@H]2C(=O)O [Drug, oxacillin]
- Percentage of plates with no growth at indicated time (0 min): 16.67%
- Percentage of plates with no growth at indicated time (30 min): 0.00%
- Percentage of plates with no growth at indicated time (120 min): 0.00%
- Percentage of plates with no growth at indicated time (240 min): 0.00%
- Percentage of plates with no growth at indicated time (480 min): 0.00%
- Percentage of plates with no growth at indicated time (1080 min): 0.00%
- Percentage of plates with no growth at indicated time (1440 min): 0.00%
